Target: T1, B-raf kinase (Homo sapiens, UniProt P15056)
T1 construct: made in house; host or cells: Sf9 insect cells (baculovirus)
Assay: in vitro Raf Kinase Assay (33P-phosphate incorporation into GST-kdMEK)
Type: biochemical
Details: human recombinant Raf protein, substrate GST-kdMEK, 33P-ATP, 25° C., 90 minutes; read-out: IC50 (concentration of test compound required to inhibit 50% of the B-raf kinase activity)
Method: Activity of human recombinant Raf protein was assessed in vitro by assay of the incorporation of radiolabelled phosphate to recombinant MAP kinase (MEK), a known physiologic substrate of Raf. Catalytically active human recombinant Raf protein was obtained by purification from sf9 insect cells infected with a human Raf recombinant baculovirus expression vector.
Method: Standard assay conditions of Raf catalytic activity utilized […] of GST-kdMBK, 10 µM ATP and 2 uCi ^33P-ATP, 50 mM MOPS, 0.1 mM EDTA, 0.1M sucrose, 10 mM MgCl2 plus 0.1% dimethylsulphoxide (containing compound where appropriate) in a total reaction volume of 30 ul. Reactions were incubated at 25° C. for 90 minutes and reactions terminated by addition of EDTA to a final concentration of […]. 10 ul of reaction was spotted to P30 phosphocellulose paper and air dried. Following four washes in ice cold 10% trichloroacetic acid, 0.5% phosphoric acid, papers were air dried prior to addition of liquid scintillant and measurement of radioactivity in a scintillation counter. The % inhibition of the B-raf kinase activity is calculated and plotted in order to determine the concentration of test compound required to inhibit 50% of the B-raf kinase activity (IC50).

T1 sequence (P15056 whole entry): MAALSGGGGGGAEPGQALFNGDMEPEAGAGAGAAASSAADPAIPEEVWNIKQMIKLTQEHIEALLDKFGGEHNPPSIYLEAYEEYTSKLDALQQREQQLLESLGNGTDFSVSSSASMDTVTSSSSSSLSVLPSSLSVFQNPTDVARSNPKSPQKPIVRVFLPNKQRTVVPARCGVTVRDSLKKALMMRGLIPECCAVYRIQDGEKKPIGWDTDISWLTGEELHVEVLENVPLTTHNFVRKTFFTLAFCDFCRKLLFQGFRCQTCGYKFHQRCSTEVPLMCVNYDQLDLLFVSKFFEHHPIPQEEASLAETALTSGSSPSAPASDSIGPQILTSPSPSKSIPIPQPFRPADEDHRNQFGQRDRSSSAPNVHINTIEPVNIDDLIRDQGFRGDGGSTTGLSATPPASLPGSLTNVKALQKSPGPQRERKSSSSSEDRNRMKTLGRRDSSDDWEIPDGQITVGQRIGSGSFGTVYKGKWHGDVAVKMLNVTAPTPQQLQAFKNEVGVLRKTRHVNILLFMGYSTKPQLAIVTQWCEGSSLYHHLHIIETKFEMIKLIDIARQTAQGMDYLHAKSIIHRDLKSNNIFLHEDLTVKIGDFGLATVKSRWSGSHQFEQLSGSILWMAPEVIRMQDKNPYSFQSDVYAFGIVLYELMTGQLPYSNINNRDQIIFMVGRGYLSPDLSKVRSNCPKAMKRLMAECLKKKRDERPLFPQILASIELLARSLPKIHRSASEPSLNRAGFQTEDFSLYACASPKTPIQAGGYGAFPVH

IC50 [µM] | SMILES
< 10 | CC(C)(C)OC(=O)c1cc(Oc2ccc(NC(=O)Nc3ccc(Cl)c(C(F)(F)F)c3)cc2)ccn1 [Compound 3, tert-butyl 4-(4-(3-(4-chloro-3-(trifluoromethyl)phenyl)ureido)phenoxy)picolinate]
< 10 | O=C(Nc1ccc(Oc2ccnc(C(=O)O)c2)cc1)Nc1ccc(Cl)c(C(F)(F)F)c1 [Compound 4, 4-(4-(3-(4-chloro-3-(trifluoromethyl)phenyl)ureido)phenoxy)picolinic acid]
< 1 | CONC(=O)c1cc(Oc2ccc(NC(=O)Nc3ccc(Cl)c(C(F)(F)F)c3)cc2)ccn1 [Compound 5, 4-(4-(3-(4-chloro-3-(trifluoromethyl)phenyl)ureido)phenoxy)-N-methoxypicolinamide]
< 1 | CCCONC(=O)c1cc(Oc2ccc(NC(=O)Nc3ccc(Cl)c(C(F)(F)F)c3)cc2)ccn1 [Compound 6, 4-(4-(3-(4-chloro-3-(trifluoromethyl)phenyl)urei-do)phenoxy)-N-propoxypicolinamide]
< 1 | CCONC(=O)c1cc(Oc2ccc(NC(=O)Nc3ccc(Cl)c(C(F)(F)F)c3)cc2)ccn1 [Compound 7, 4-(4-(3-(4-chloro-3-(trifluoromethyl)phenyl)urei-do)phenoxy)-N-ethoxypicolinamide]
< 1 | CCN(CC)CCONC(=O)c1cc(Oc2ccc(NC(=O)Nc3ccc(Cl)c(C(F)(F)F)c3)cc2)ccn1 [Compound 8, 4-(4-(3-(4-chloro-3-(trifluoromethyl)phenyl)urei-do)phenoxy)-N-(2-(diethylamino)ethoxy)picolinamide]
< 1 | CN(C)CCONC(=O)c1cc(Oc2ccc(NC(=O)Nc3ccc(Cl)c(C(F)(F)F)c3)cc2)ccn1 [Compound 9, 4-(4-(3-(4-chloro-3-(trifluoromethyl)phenyl)urei-do)phenoxy)-N-(2-(dimethylamino)ethoxy)picolinamide]
< 1 | CCN(CC)C(=O)CONC(=O)c1cc(Oc2ccc(NC(=O)Nc3ccc(Cl)c(C(F)(F)F)c3)cc2)ccn1 [Compound 10, 4-(4-(3-(4-chloro-3-(trifluoromethyl)phenyl)urei-do)phenoxy)-N-(2-(diethylamino)-2-oxoethoxy)picolinamide]
< 1 | CN(C)C(=O)CONC(=O)c1cc(Oc2ccc(NC(=O)Nc3ccc(Cl)c(C(F)(F)F)c3)cc2)ccn1 [Compound 11, 4-(4-(3-(4-chloro-3-(trifluoromethyl)phenyl)urei-do)phenoxy)-N-(2-(dimethylamino)-2-oxoethoxy)picolinamide]
< 1 | CONC(=O)c1cc(Oc2ccc(NC(=O)Nc3ccc(Cl)cc3)cc2)ccn1 [Compound 12, 4-(4-(3-(4-chlorophenyl)ureido)phenoxy)-N-methoxypicolinamide]
< 1 | CONC(=O)c1cc(Oc2ccc(NC(=O)Nc3cccc(C(F)(F)F)c3)cc2)ccn1 [Compound 13, N-methoxy-4-(4-(3-(3-(trifluoromethyl)phenyl)urei-do)phenoxy)picolinamide]
< 1 | CONC(=O)c1cc(Oc2ccc(NC(=O)Nc3ccc(Cl)c(Cl)c3)cc2)ccn1 [Compound 14, 4-(4-(3-(3,4-dichlorophenyl)ureido)phenoxy)-N-methoxypicolinamide]
< 1 | CONC(=O)c1cc(Oc2ccc(NC(=O)Nc3ccccc3)cc2)ccn1 [Compound 15, N-methoxy-4-(4-(3-phenylureido)phenoxy)picolinamide]
< 1 | CONC(=O)c1cc(Oc2ccc(NC(=O)Nc3ccc(OC)c(OC)c3)cc2)ccn1 [Compound 16, 4-(4-(3-(3,4-dimethoxyphenyl)ureido)phenoxy)-N-methoxypicolinamide]
< 1 | O=C(Nc1ccc(Oc2ccnc(C(=O)NOC3CCCC3)c2)cc1)Nc1ccc(Cl)c(Cl)c1 [Compound 17, N-(cyclopentyloxy)-4-(4-(3-(3,4-dichloro-phenyl)ureido)phenoxy)picolinamide]
< 1 | O=C(Nc1ccccc1)Nc1ccc(Oc2ccnc(C(=O)NOC3CCCCC3)c2)cc1 [Compound 18, N-(cyclohexyloxy)-4-(4-(3-phenylureido)phenoxy)picolinamide]
< 10 | CCNC(=O)c1cc(Oc2ccc(NC(=O)c3ccc(Cl)cc3)cc2)ccn1 [Compound 20, 4-(4-(4-chloro-benzamido)phenoxy)-N-ethylpicolinamide]
< 10 | CCNC(=O)c1cc(Oc2ccc(NC(=O)c3ccc(Cl)c(Cl)c3)cc2)ccn1 [Compound 21, 4-(4-(3,4-dichlorobenzamido)phenoxy)-N-ethylpicolinamide]
< 1 | O=C(Nc1ccc(Oc2cc(C(=O)NCCO)ncn2)cc1)Nc1ccc(Cl)c(C(F)(F)F)c1 [Compound 22, 6-(4-(3-(4-chloro-3-(trifluoro-methyl)phenyl)ureido)phenoxy)-N-(2-hydroxyethyl)pyrimidine-4-carboxamide]
< 1 | CNC(=O)c1cc(Oc2ccc(NC(=O)Nc3ccc(Cl)c(C(F)(F)F)c3)cc2)ncn1 [Compound 23, 6-(4-(3-(4-chloro-3-(trifluoro-methyl)phenyl)ureido)phenoxy)-N-methylpyrimidine-4-carboxamide]
< 1 | CNC(=O)c1cc(Oc2ccc(NC(=O)Nc3ccc(Cl)cc3)cc2)ncn1 [Compound 24, 6-(4-(3-(4-chlorophenyl)ureido)phenoxy)-N-methylpyrimidine-4-carboxamide]
< 1 | CCONC(=O)c1cc(Oc2ccc(NC(=O)Nc3ccc(Cl)c(C(F)(F)F)c3)cc2)ncn1 [Compound 25, 6-(4-(3-(4-chloro-3-(trifluoro-methyl)phenyl)ureido)phenoxy)-N-ethoxypyrimidine-4-carboxamide]
< 1 | CONC(=O)c1cc(Oc2ccc(NC(=O)Nc3ccc(Cl)c(C(F)(F)F)c3)cc2)ncn1 [Compound 26, 6-(4-(3-(4-chloro-3-(trifluoro-methyl)phenyl)ureido)phenoxy)-N-methoxypyrimidine-4-carboxamide]
< 1 | CN(C)CCNC(=O)c1cc(Oc2ccc(NC(=O)Nc3ccc(Cl)c(C(F)(F)F)c3)cc2)ncn1 [Compound 27, 6-(4-(3-(4-chloro-3-(trifluoro-methyl)phenyl)ureido)phenoxy)-N-(2-(dimethylamino)ethyl)pyrimidine-4-carboxamide]
< 1 | CNC(=O)c1ncnc(Oc2ccc(NC(=O)Nc3ccc(Cl)c(C(F)(F)F)c3)cc2)n1 [Compound 28, 4-(4-(3-(4-chloro-3-(trifluoro-methyl)phenyl)ureido)phenoxy)-N-methyl-1,3,5-triazine-2-carboxamide]

SMILES | IC50 [µM]
COc1ccc(NC(=O)Nc2ccc(Oc3ccnc(C(=O)NOC4CCC4)c3)cc2)cc1OC [Compound 19, N-cyclobutoxy-4-(4-(3-(3,4-dimethoxyphenyl)urei-do)phenoxy)picolinamide] | < 1

From patent US20090012091A1, “Oximide derivatives and their therapeutical application” (KinaGen, Inc., priority 2007, published 2009)
